Where “and” joins values, the source holds several entries; their conditions need not be identical. Equal values may be shown once. Where a SMILES comes first, the peptide text is derived from it. Where no end group is shown, it is not given here. The star is where a group is joined. Biotin = O=C1N[C@H]2[C@H](CS[C@H]2CCCCC(=O)*)N1
Tests used:
[1] = system: CCRF-CEM; test: Cell survival, mutants of MDOKSH peptide; type: cell-based; conditions: for CELL SURVIVAL, CCRF-CEM: expressed relative to the activity of the parental peptide MDOKSH
Text: (§1) In order to maximize the effects of cytotoxic peptides, alanine scanning of one peptide (MDOKSH) was undertaken as an illustration. 48 mutants were synthesized, purified and tested in CCRF-CEM and MCF-7. The cytotoxicity of the 48 peptides was strongly correlated in the two cell line assay systems (r=0.606). […] The core MBD sequence may, if desired, be excluded from the region to be explored by mutagenesis, in order to expedite the experiment.

[2] = system: MCF-7; test: Cell survival, mutants of MDOKSH peptide; type: cell-based; design: CELL SURVIVAL, MCF-7: unit not given here; conditions: for CELL SURVIVAL, MCF-7: expressed relative to the activity of the parental peptide MDOKSH
Text: as §1

[3] = system: cancer cells; test: Selective cytotoxicity, cancer cells versus normal counterparts; type: cell-based, human
Text: (§2) Also, peptides such as NFKB and CSK are of interest, targeting stress-coping mechanisms such as inflammation. The breast cancer lines tested are HS578T, MX-1, MDA-MB231, MDA-MB435 and MCF7. Leukemia cell lines tested for cytotoxicity effects with these MBD-tagged peptides are CCRF-CEM, RPMI-8226 and MOLT-4. Overall, MCF-7 and CCRF-CEM yield the most consistent data and the strongest effect across the board (Table 12). In addition, elevated levels of cytotoxicity are observed when multiple peptides are combined while keeping the overall amount of peptide added constant. Cytotoxicity increases with the number of peptides added per cocktail and is further enhanced by combining peptide cocktail treatment with paclitaxel.

[4] = system: shRNA containing the lambda nutR hairpin loop; test: Bio-KGF binding of shRNA on Ni-NTA plate, Ribogreen; conditions: for Ribogreen Fluorescence: mean of eight readings
Text: Peptide Bio-KGF binds shRNA: Bio-KGF peptide was synthesized by Genemed Synthesis, Inc. (S. San Francisco, Calif.) as a 40-mer containing an MBD sequence and an RNA-hairpin binding domain from the N-terminus of bacteriophage lambda N protein: Bio-KGF: (“N”-terminal biotin) . . . KGF YKK KQC RPS KGR KRG FCW AQT RRR ERR AEK QAQ WKA A . . . (“C” terminus) (SEQ ID NO: 11)
An shRNA designed to silence the human beclin gene was designed to include a hairpin sequence corresponding to the NutR box of bacteriophage lambda mRNA (the binding target for the Bio-KGF peptide) and was amplified using the Silencer™ siRNA
Various molar excess amounts of Bio-KGF (ranging from 63 pg to 2 ug per well; similar results were obtained across this range) were attached to a Ni-NTA plate (Qiagen Inc., Carlsbad, Calif. for 1 hour and blocked overnight with 3% BSA at 4 degrees C. in the refrigerator, and washed with PBS/Tween and TE buffers. RNA dilutions were added in TE buffer, incubated for 30 min on shaker, then for 30 min on bench at room temperature. After one wash with TE buffer, Ribogreen reagent (Ribogreen RNA Quantitation Reagent and Kit from Molecular Probes/Invitrogen) was added to the wells, incubated 5 minutes, and fluorescence was read on a fluorescent plate reader. The results are listed in Table 8 (each number is a mean of eight readings): […]

[5] = system: MOLT-4; test: Cytotoxicity of MBD therapeutic peptides; type: cell-based, human; conditions: relative to equal dose of control MBD peptide, only p < 0.05 shown, 1-4 experiments
Text: as §2

[6] = system: RPMI-8826; test: Cytotoxicity of MBD therapeutic peptides; type: cell-based, human; conditions: relative to equal dose of control MBD peptide, only p < 0.05 shown, 1-4 experiments
Text: as §2

[7] = system: MDA-MB435; test: Cytotoxicity of MBD therapeutic peptides; type: cell-based; conditions: relative to equal dose of control MBD peptide, only p < 0.05 shown, 1-4 experiments
Text: as §2

[8] = system: SR; test: Cytotoxicity of MBD therapeutic peptides; type: cell-based; conditions: relative to equal dose of control MBD peptide, only p < 0.05 shown, 1-4 experiments
[9] = system: MDA-MB231; test: Cytotoxicity of MBD therapeutic peptides; type: cell-based, human; conditions: relative to equal dose of control MBD peptide, only p < 0.05 shown, 1-4 experiments
Text: as §2

[10] = system: MCF-7; test: Cytotoxicity of MBD therapeutic peptides; type: cell-based, human; conditions: relative to equal dose of control MBD peptide, only p < 0.05 shown, 1-4 experiments
Text: as §2

In the case of “KKGFYKKKQCRPSKGRKRGFCWKPLYWDLYEM [Mutant 9]”, the “CELL SURVIVAL, CCRF-CEM” value [1] was 63.8 ± 4.6 and the “CELL SURVIVAL, MCF-7” value [2] was 56.8 ± 8.1.

For `CC(C)C[C@H](NC(=O)[C@H](CC(C)C)NC(=O)[C@H](CCCCN)NC(=O)[C@H](Cc1c[nH]c2ccccc12)NC(=O)[C@H](CC(C)C)NC(=O)[C@H](CC(=O)O)NC(=O)[C@H](CO)NC(=O)[C@H](Cc1ccccc1)NC(=O)[C@@H](NC(=O)[C@H](CCC(=O)O)NC(=O)CCCC[C@@H]1SC[C@@H]2NC(=O)N[C@@H]21)[C@@H](C)O)C(=O)N[C@@H](CCCCN)C(=O)N[C@@H](CCCCN)C(=O)NCC(=O)N[C@@H](Cc1ccccc1)C(=O)N[C@@H](Cc1ccc(O)cc1)C(=O)N[C@@H](CCCCN)C(=O)N[C@@H](CCCCN)C(=O)N[C@@H](CCCCN)C(=O)N[C@@H](CCC(N)=O)C(=O)N[C@@H](CS)C(=O)N[C@@H](CCCNC(=N)N)C(=O)N1CCC[C@H]1C(=O)N[C@@H](CO)C(=O)N[C@@H](CCCCN)C(=O)NCC(=O)N[C@@H](CCCNC(=N)N)C(=O)N[C@@H](CCCCN)C(=O)N[C@@H](CCCNC(=N)N)C(=O)NCC(=O)N[C@@H](Cc1ccccc1)C(=O)N[C@@H](CS)C(=O)N[C@@H](Cc1c[nH]c2ccccc12)C(=O)O` [PEP-1] (Biotin-ETFSDLWKLLKKGFYKKKQCRPSKGRKRGFCW-OH), the “Cytotoxic effect on cancer cells versus normal counterparts (in words)” value [3] was “strong cytotoxic effect on cancer cells but not their human counterparts”.

In the case of “KKGFYKKKQCRPSKGRKRGFCWKPLYWDLYEI [Mutant 6]”, the “CELL SURVIVAL, CCRF-CEM” value [1] was 62.3 ± 5.0 and the “CELL SURVIVAL, MCF-7” value [2] was 68.5 ± 6.5.

“KGF YKK KQC RPS KGR KRG FCW AQT RRR ERR AEK QAQ WKA A (Biotin-KGFYKKKQCRPSKGRKRGFCWAQTRRRERRAEKQAQWKAA; cysteine pairing not given here) [Bio-KGF]” was tested, and the “Binding of shRNA (in words)” value [4] was “binds the shRNA”, the “Ribogreen Fluorescence” value ([4]; 2.7 ng shRNA per well) was 853 ± 600 and the “Ribogreen Fluorescence” value ([4]; 5.5 ng shRNA per well) was 2058 ± 781. For the same compound, the “Ribogreen Fluorescence” value ([4]; 11 ng shRNA per well) was 6016 ± 2977, the “Ribogreen Fluorescence” value ([4]; 22 ng shRNA per well) was 11924 ± 3650 and the “Ribogreen Fluorescence” value ([4]; 44 ng shRNA per well) was 42053 ± 12769. For the same compound, the “Ribogreen Fluorescence” value ([4]; 88 ng shRNA per well) was 81819 ± 24656.

For “Biotin-KKGFYKKKQCRPSKGRKRGFCWARIDDMSSRIDDLEKNIADL (cysteines drawn unpaired) [M9HSBP1]”, the “% viability @ 48 hr/25 ug/ml peptide, MOLT-4” value [5] was 77.1 ± 20.3% and the “% viability @ 48 hr/25 ug/ml peptide, RPMI-8826” value [6] was 77.7 ± 5.2%.

“KKGFYKKKQCRPSKGRKRGFCWKPLYWALYE [Mutant 23]” was tested, and the “CELL SURVIVAL, CCRF-CEM” value [1] was 74.5 ± 8.0 and the “CELL SURVIVAL, MCF-7” value [2] was 58.8 ± 8.1.

With `CC(C)C[C@H](NC(=O)[C@H](C)NC(=O)[C@H](CCCCN)NC(=O)[C@H](Cc1c[nH]c2ccccc12)NC(=O)[C@H](CS)NC(=O)[C@H](Cc1ccccc1)NC(=O)CNC(=O)[C@H](CCCNC(=N)N)NC(=O)[C@H](CCCCN)NC(=O)[C@H](CCCNC(=N)N)NC(=O)CNC(=O)[C@H](CCCCN)NC(=O)[C@H](CO)NC(=O)[C@@H]1CCCN1C(=O)[C@H](CCCNC(=N)N)NC(=O)[C@H](CS)NC(=O)[C@H](CCC(N)=O)NC(=O)[C@H](CCCCN)NC(=O)[C@H](CCCCN)NC(=O)[C@H](CCCCN)NC(=O)[C@H](Cc1ccc(O)cc1)NC(=O)[C@H](Cc1ccccc1)NC(=O)CNC(=O)[C@H](CCCCN)NC(=O)[C@H](CCCCN)NC(=O)CCCC[C@@H]1SC[C@@H]2NC(=O)N[C@@H]21)C(=O)N[C@@H](Cc1ccc(O)cc1)C(=O)N[C@@H](Cc1c[nH]c2ccccc12)C(=O)N[C@@H](CC(=O)O)C(=O)N[C@@H](CC(C)C)C(=O)N[C@@H](Cc1ccc(O)cc1)C(=O)N[C@@H](CCC(=O)O)C(=O)O` [Mutant 27] (Biotin-KKGFYKKKQCRPSKGRKRGFCWKALYWDLYE-OH) the “Cytotoxicity versus parental MDOKSH (in words)” value ([1]; CCRF-CEM) was “greatly enhanced cytotoxicity” and the “Cytotoxicity versus parental MDOKSH (in words)” value ([2]; MCF-7) was “greatly enhanced cytotoxicity”.

With “KKGFYKKKQCRPSKGRKRGFCWAPLYWDLYE [Mutant 28]” the “CELL SURVIVAL, CCRF-CEM” value [1] was 60.1 ± 11.1 and the “CELL SURVIVAL, MCF-7” value [2] was 52.7 ± 11.7.

For `CC[C@H](C)[C@H](NC(=O)[C@H](CC(=O)O)NC(=O)[C@H](CO)NC(=O)[C@H](Cc1ccccc1)NC(=O)[C@@H](NC(=O)[C@H](CCC(=O)O)NC(=O)CCCC[C@@H]1SC[C@@H]2NC(=O)N[C@@H]21)[C@@H](C)O)C(=O)N[C@@H](Cc1c[nH]c2ccccc12)C(=O)N[C@@H](CCCCN)C(=O)N[C@@H](CC(C)C)C(=O)N[C@@H](CC(C)C)C(=O)N[C@@H](CCCCN)C(=O)N[C@@H](CCCCN)C(=O)NCC(=O)N[C@@H](Cc1ccccc1)C(=O)N[C@@H](Cc1ccc(O)cc1)C(=O)N[C@@H](CCCCN)C(=O)N[C@@H](CCCCN)C(=O)N[C@@H](CCCCN)C(=O)N[C@@H](CCC(N)=O)C(=O)N[C@@H](CS)C(=O)N[C@@H](CCCNC(=N)N)C(=O)N1CCC[C@H]1C(=O)N[C@@H](CO)C(=O)N[C@@H](CCCCN)C(=O)NCC(=O)N[C@@H](CCCNC(=N)N)C(=O)N[C@@H](CCCCN)C(=O)N[C@@H](CCCNC(=N)N)C(=O)NCC(=O)N[C@@H](Cc1ccccc1)C(=O)N[C@@H](CS)C(=O)N[C@@H](Cc1c[nH]c2ccccc12)C(=O)O` [PEP-3] (Biotin-ETFSDIWKLLKKGFYKKKQCRPSKGRKRGFCW-OH), the “% viability @ 48 hr/25 ug/ml peptide, MDA-MB435” value [7] was 16.0 ± 2.0% and 27.0 ± 3.9%, the “Cytotoxic effect on cancer cells versus normal counterparts (in words)” value [3] was “strong cytotoxic effect on cancer cells but not their human counterparts” and the “% viability @ 48 hr/25 ug/ml peptide, SR” value [8] was 75.9 ± 15.7%. For the same compound, the “% viability @ 48 hr/25 ug/ml peptide, MOLT-4” value [5] was 73.0 ± 5.5% and 58.3 ± 16.5%, the “% viability @ 48 hr/25 ug/ml peptide, MDA-MB231” value [9] was 32.9 ± 1.7% and the “% viability @ 48 hr/25 ug/ml peptide, MCF-7” value [10] was 27.5 ± 15.2% and 30.6 ± 5.7% and 21.7 ± 1.5%.

For “KKGFYKKKQCRPSKGRKRGFCWKPLYWDLYEP [Mutant 11]”, the “CELL SURVIVAL, CCRF-CEM” value [1] was 64.8 ± 7.2 and the “CELL SURVIVAL, MCF-7” value [2] was 59.6 ± 10.7.

For “AKGFYKKKQCRPSKGRKRGFCWKPLYWDLYE [Mutant 48]”, the “CELL SURVIVAL, CCRF-CEM” value [1] was 71.8 ± 10.7 and the “CELL SURVIVAL, MCF-7” value [2] was 61.6 ± 3.1.

For `CC(C)C[C@H](NC(=O)[C@H](CC(=O)O)NC(=O)[C@H](Cc1c[nH]c2ccccc12)NC(=O)[C@H](Cc1ccc(O)cc1)NC(=O)[C@H](CC(C)C)NC(=O)[C@@H]1CCCN1C(=O)[C@H](CCCCN)NC(=O)[C@H](Cc1c[nH]c2ccccc12)NC(=O)[C@H](CS)NC(=O)[C@H](Cc1ccccc1)NC(=O)CNC(=O)[C@H](CCCNC(=N)N)NC(=O)[C@H](CCCCN)NC(=O)[C@H](CCCNC(=N)N)NC(=O)CNC(=O)[C@H](CCCCN)NC(=O)[C@H](CO)NC(=O)[C@@H]1CCCN1C(=O)[C@H](CCCNC(=N)N)NC(=O)[C@H](CS)NC(=O)[C@H](CCC(N)=O)NC(=O)[C@H](CCCCN)NC(=O)[C@H](CCCCN)NC(=O)[C@H](CCCCN)NC(=O)[C@H](Cc1ccc(O)cc1)NC(=O)[C@H](Cc1ccccc1)NC(=O)CNC(=O)[C@H](CCCCN)NC(=O)[C@H](CCCCN)NC(=O)CCCC[C@@H]1SC[C@@H]2NC(=O)N[C@@H]21)C(=O)N[C@@H](Cc1ccc(O)cc1)C(=O)N[C@@H](CCC(=O)O)C(=O)O` [MDOKSH] (Biotin-KKGFYKKKQCRPSKGRKRGFCWKPLYWDLYE-OH), the “CELL SURVIVAL, CCRF-CEM” value [1] was 100 and the “CELL SURVIVAL, MCF-7” value [2] was 100.

Source: patent US7618816B2, “Metal-binding therapeutic peptides” (Ontherix, Inc., priority 2005, dated 2009)
